Columns and labels:
S. aureus Newman [1] = assay: fitness (endpoint OD595 vs no drug) (fraction); higher = more growth
Method in brief: (§1)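 Fitness was defined as the optical density at the transition into stationary phase relative to the robust mean of no-drug control wells. Values were capped at 1. Cultures were started at OD595 0.01 in 384-well plates (30 µl, or 55 µl for S. pneumoniae) in TSB, LB Lennox or CY at 37 °C. OD595 was recorded every 30 min over 14 h, with the first reading subtracted as background.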

B. subtilis 168 = assay: Bliss interaction score (quartile over a dose matrix) (fitness difference); higher = more antagonism (negative = synergy)
Method in brief: (§2)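 Fitness was OD595 at entry into stationary phase divided by the plate's robust no-drug mean and capped at 1; single-drug fitness was inferred from combination data. The Bliss score is observed minus expected (product) fitness, summarised by quartiles over technical, biological and donor/recipient replicates.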

S. aureus DSM 20231 [2] = assay: as above
Method in brief: as §2

S. pneumoniae D39V = assay: as above
Method in brief: as §2

S. aureus DSM 20231 [3] = assay: fitness (endpoint OD595 vs no drug) (fraction); higher = more growth
Method in brief: as §1

S. aureus Newman [4] = assay: Bliss interaction score (quartile over a dose matrix) (fitness difference); higher = more antagonism (negative = synergy)
Method in brief: as §2
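Throughout, for Bliss interaction score (quartile over a dose matrix): first quartile when negative (synergy) and third quartile when positive (antagonism).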

O=C(N[C@H](CO)[C@H](O)c1ccc([N+](=O)[O-])cc1)C(Cl)Cl [Chloramphenicol] + CC(C1CCC(C(O1)OC2C(CC(C(C2O)OC3C(C(C(CO3)(C)O)NC)O)N)N)N)NC [Gentamicin]
fitness, S. aureus Newman [1], main component drawn
Conditions	partner 0.375 µg/mL	partner 0.5 µg/mL	partner 0.75 µg/mL	partner 1 µg/mL	partner 1.5 µg/mL	partner 2 µg/mL
first compound 0.75 µg/mL	0.778	0.868	0.778	0.974	0.765	≥ 1
first compound 1.5 µg/mL	0.507	0.775	0.543	0.893	0.561	0.871
first compound 3 µg/mL	0.208	0.436	0.223	0.487	0.231	0.512

main component drawn
Conditions	Bliss interaction score
B. subtilis 168	0.13
S. aureus DSM 20231 [2]	0.0877
S. pneumoniae D39V	-0.162

O=C(N[C@H](CO)[C@H](O)c1ccc([N+](=O)[O-])cc1)C(Cl)Cl [Chloramphenicol] + CCC[C@@H]1C[C@@H](C(=O)N[C@@H]([C@H]2O[C@H](SC)[C@H](O)[C@@H](O)[C@H]2O)[C@H](C)Cl)N(C)C1 [Clindamycin]
fitness
Conditions	first compound 0.75 µg/mL	first compound 1.5 µg/mL	first compound 3 µg/mL
S. aureus DSM 20231 [3], partner 0.0312 µg/mL	–	–	0.137
S. aureus DSM 20231 [3], partner 0.0625 µg/mL	0.0956	–	0.0841
S. aureus DSM 20231 [3], partner 0.125 µg/mL	0.0527	0.0897	0.0677
S. aureus Newman [1], partner 0.0312 µg/mL	0.539	0.392	0.11
S. aureus Newman [1], partner 0.0625 µg/mL	–	–	0.0976
S. aureus Newman [1], partner 0.125 µg/mL	0.0906	0.0591	0.0645

Conditions	Bliss interaction score
S. aureus DSM 20231 [2]	0.0541
S. aureus Newman [4]	-0.0758
S. pneumoniae D39V	0.155

O=C(N[C@H](CO)[C@H](O)c1ccc([N+](=O)[O-])cc1)C(Cl)Cl [Chloramphenicol] + CN(C)C(=O)C(CCN1CCC(O)(c2ccc(Cl)cc2)CC1)(c1ccccc1)c1ccccc1 [Loperamide]
Conditions	Bliss interaction score
B. subtilis 168	-0.18
S. aureus Newman [4]	-0.0555
S. pneumoniae D39V	0.146

O=C(N[C@H](CO)[C@H](O)c1ccc([N+](=O)[O-])cc1)C(Cl)Cl [Chloramphenicol] + CO[C@H]1/C=C/O[C@@]2(C)Oc3c(C)c(O)c4c(O)c(c(/C=N/N5CCN(C)CC5)c(O)c4c3C2=O)NC(=O)/C(C)=C\C=C\[C@H](C)[C@H](O)[C@@H](C)[C@@H](O)[C@@H](C)[C@H](OC(C)=O)[C@@H]1C [Rifampicin]
Conditions	Bliss interaction score
S. aureus DSM 20231 [2]	0.0582
S. aureus Newman [4]	0.0185
S. pneumoniae D39V	0.069
